Several values for one entry are separate records, joined by “and”; a condition that tells them apart may be missing. Identical values can stand only once. Like-named read-outs stand apart in the source and are kept apart here.
Columns and labels:
murine lymphocytes = assay: In vitro functional assay based on viability of murine lymphocytes; format: cell-based
Procedure: FIG. 1C. The effect of 5FU or vehicle control in the functional assay presented as viable cells/ml. The incubation time with 5FU or vehicle control (72 hours) is indicated on the x-axis.

[1] = human, in vivo
[2] = Phase I clinical trial of CT-011, pharmacokinetics; details: Table 2 patients
[3] = system: advanced hematological malignancies
topoisomerase I = target: T1, topoisomerase I (Homo sapiens, UniProt P11387); details: cited from earlier work
T1 sequence (P11387 1-765): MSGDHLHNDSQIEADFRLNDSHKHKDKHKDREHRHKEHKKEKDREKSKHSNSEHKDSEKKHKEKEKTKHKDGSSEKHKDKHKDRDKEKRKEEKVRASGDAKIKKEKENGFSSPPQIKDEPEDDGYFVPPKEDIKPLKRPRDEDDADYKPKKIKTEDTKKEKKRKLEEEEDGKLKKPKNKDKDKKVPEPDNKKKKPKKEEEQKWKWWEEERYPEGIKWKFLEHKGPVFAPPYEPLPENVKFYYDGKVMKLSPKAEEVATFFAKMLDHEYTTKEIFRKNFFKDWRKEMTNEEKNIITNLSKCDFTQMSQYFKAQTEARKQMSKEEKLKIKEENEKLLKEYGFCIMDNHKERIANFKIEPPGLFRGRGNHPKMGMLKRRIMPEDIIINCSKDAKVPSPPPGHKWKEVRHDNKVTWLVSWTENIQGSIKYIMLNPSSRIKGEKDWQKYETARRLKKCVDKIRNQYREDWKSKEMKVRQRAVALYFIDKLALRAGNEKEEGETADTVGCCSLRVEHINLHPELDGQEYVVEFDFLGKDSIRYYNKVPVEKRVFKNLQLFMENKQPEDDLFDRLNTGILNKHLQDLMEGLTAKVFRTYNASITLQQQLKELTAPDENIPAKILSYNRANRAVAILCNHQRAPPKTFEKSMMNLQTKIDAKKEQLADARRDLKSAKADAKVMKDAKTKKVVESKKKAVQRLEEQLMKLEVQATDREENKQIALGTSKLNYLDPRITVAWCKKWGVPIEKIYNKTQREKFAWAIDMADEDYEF

[4] = murine lymphocytes, agent combined with hBAT-1
[5] = AML patient receiving CT-011 at 0.2 and 3 mg/kg
[6] = Pt. 003/016, AML, 0.2/3.0 mg/kg

O=P1(N(CCCl)CCCl)NCCCO1 (stereo not drawn) [cyclophosphamide]
cell survival when given in combination with hBAT-1 (murine lymphocytes; murine lymphocyte culture): do not enhance cell survival

Nc1ccn([C@@H]2O[C@H](CO)[C@@H](O)[C@@H]2O)c(=O)n1 [cytarabine]
effect of chemotherapeutic agent on the activity of hBAT-1 (murine lymphocytes; [4]): do not adversely affect the activity of hBAT-1

CC(=O)O[C@H]1C(=O)[C@@]2(C)[C@H]([C@H](OC(=O)c3ccccc3)[C@]3(O)C[C@H](OC(=O)[C@H](O)[C@@H](NC(=O)c4ccccc4)c4ccccc4)C(C)=C1C3(C)C)[C@]1(OC(C)=O)CO[C@@H]1C[C@@H]2O [paclitaxel]
effect of chemotherapeutic agent on the activity of hBAT-1 (murine lymphocytes; [4]): do not adversely affect the activity of hBAT-1

N.N.[Cl][Pt][Cl] [cisplatin, cis-diamminedichloridoplatinum II]
effect of chemotherapeutic agent on the activity of hBAT-1 (murine lymphocytes; [4]): do not adversely affect the activity of hBAT-1

O=C1[O][Pt]2([NH][C@@H]3CCCC[C@H]3[NH]2)[O]C1=O [oxaliplatin]
effect of chemotherapeutic agent on the activity of hBAT-1 (murine lymphocytes): do not adversely affect the activity of hBAT-1

O=c1[nH]cc(F)c(=O)[nH]1 [5FU, 5-fluorouracil]
effect of chemotherapeutic agent on the activity of hBAT-1 (murine lymphocytes; [4]): do not adversely affect the activity of hBAT-1 | cell survival with chemotherapeutic agent on its own (murine lymphocytes; without hBAT-1, FIG. 1C): did not enhance cell survival

hBAT-1: humanized monoclonal antibody with CDRs of murine mBAT-1 and human framework regions
highest half life [1]: 17.1 days | median t1/2 of the 6 patients with apparent clinical response versus the rest [2]: somewhat higher than that of the rest of the patients | patients reporting adverse events (AE) ([3]; 11 of 18): 61% | changes in disease parameters ([3]; 21 days, 2 CLL, 4 NHL and one Multiple Myeloma patient): no changes in disease parameters | clinical response [3, 5]: minimal response | time to progression after receiving CT-011 [3, 5]: 61 weeks | change in average percentage of blasts in the peripheral blood ([3]; AML patients, 21 days, excluding one patient): no change | duration of stable disease ([3]; CLL patient, 0.6 mg/kg): 36 weeks | duration of stable disease ([3]; CLL patient, 1.5 mg/kg): over 78 weeks | duration of stable disease ([3]; HD patient, 0.6 mg/kg): 35 weeks | duration of stable disease ([3]; MM patient, 6.0 mg/kg): over 60 weeks | Overall Survival (Weeks) [3, 6]: 61 Weeks | platelet transfusion-independent period [3, 6]: for 9 months | reduction in peripheral blasts ([3]; Pt. 003/016, AML, on first dose (0.2 mg/kg)): (50% to 5%) on first dose | Overall Survival (Weeks) ([3]; Pt. 005, CLL, 0.6 mg/kg): 36 Weeks | Overall Survival (Weeks) ([3]; Pt. 006, HD, 0.6 mg/kg): 35 Weeks | Overall Survival (Weeks) ([3]; Pt. 008, CLL, 1.5 mg/kg): >78 Weeks | duration stable ([3]; Pt. 008, CLL, 1.5 mg/kg): Stable for >17 months | Overall Survival (Weeks) ([3]; Pt. 015, NHL, 3.0 mg/kg): >68 Weeks | tumor masses by CT scan ([3]; Pt. 015, follicular lymphoma, 10 months post CT-011 treatment): complete elimination of tumor masses | Overall Survival (Weeks) ([3]; Pt. 017, MM, 6.0 mg/kg): >60 Weeks | duration stable ([3]; Pt. 017, MM, 6.0 mg/kg): Stable for >13 months | cumulative survival of all patients ([3]; at 21 days, n=18): 76% | most frequent AE ([3]; concluded not associated with CT-011 treatment): diarrhea | patients with apparent response to treatment ([3]; follow-up): 6 patients | mean survival time ([3]; follow-up beyond 21 days, all patients, listed as CT-011): 25±27 weeks and 25 weeks | difference in mean survival time across the dose groups ([3]; human, in vivo): No difference | serious adverse events ([3]; number, all resulted in death, in AML patients): Four | sustained remission ([3]; patient #015, following CT-011 treatment): 68 weeks | clinical response ([3]; patient #015, stage III follicular lymphoma, 3.0 mg/kg): complete remission | dose-limiting toxicity (DLT) ([3]; single dose 0.2 to 6 mg/kg): No DLT was reached | maximum tolerated dose (MTD) ([3]; single dose 0.2 to 6 mg/kg): No single dose MTD was found | safety and tolerability ([3]; single dose 0.2 to 6 mg/kg): safe and well tolerated with no treatment-related toxicities

CCc1c2c(nc3ccc(O)cc13)-c1cc3c(c(=O)n1C2)COC(=O)[C@]3(O)CC [SN-38, 7-ethyl-10-hydroxy-camptothecin]
cell survival when given in combination with hBAT-1 (murine lymphocytes): do not enhance cell survival | potency relative to parent compound irinotecan (topoisomerase I): One thousand-fold more potent

Reference: patent US9309308B2, “Monoclonal antibodies for tumor treatment” (CURETECH LTD., priority 2008, dated 2016)
